Patent EP0723577B1, “DETERGENT COMPOSITIONS CONTAINING SILVER ANTI-TARNISHING AGENTS” (UNILEVER N.V., priority 1993, dated 1995)

How the values were obtained:
[1] = physchem; format: physicochemical
Protocol: As used herein, the term "pKa" means a pH value at which 50% of the heterocyclic ring moieties of the compound (particularly the five-membered rings in the case of the purine class compounds) are in ionic form.
The pH of this solution was adjusted to 3.0 with H2SO4. The solution was then titrated with 1N NaOH to pH 11.0. A plot of mls. NaOH vs. pH for each sample was prepared. The pKa of the compound is that point where the maximum change in pH as a function of mls. NaOH is observed.

[2] = Silver plates held in the compositions for 25 minutes, evaluated for tarnishing; conditions: 4 wt.% epsilon-phthalimido peroxyhexanoic acid
Protocol: (§1) A comparison of anti-tarnishing performance of purine class compounds within the scope of the invention and azole compounds outside the invention was conducted. The selected compounds were incorporated in an amount of 1 wt.% in a machine dishwashing composition containing 4 wt.% epsilon-phthalimido peroxyhexanoic acid as the bleaching agent. The pH values of the compositions were adjusted by the addition of a 50% solution of sodium hydroxide or concentrated sulfuric acid, as necessary.
(§2) Copper plates and silver plates were held in each of the compositions for 25 minutes, removed, rinsed with deionized water and evaluated for tarnishing. […]
as §1, with “1,3-N azole” for “purine class”
as §2

[3] = Tarnish-monitoring experiments in a dishwasher, monitors visually ranked 0 to 6 against the Example 1 reference scale
Protocol: The wash program consisted of a pre-wash at 40°C, a mainwash at 55°C, two intermediate rinses, and a final rinse at 65°C.
The mainwash pH with these compositions was typically 8.7. Silver-plated spoons (2 per run) were the monitors used in the test. The spoons were supplied by Oneida Silversmiths, USA. The monitors were washed in a commercially available hand dishwash liquid and rinsed with deionized water and acetone before use. In the dishwasher the monitors were kept apart from each other in the cutlery basket. At the end of a single-run machine program, the monitors were visually analyzed for the presence of colours and the loss of gloss.
This ranking of spoons was used as a reference scale for all subsequent Examples.

[4] = Tarnish-monitoring experiments in a dishwasher with varied bleaching agent and mainwash pH, visual evaluation against the Example 1 reference scale; conditions: for reduction of tarnishing: pH 7.5 (peracetic acid 4.12%); for reduction in tarnishing: pH 10.5 (sodium hypochlorite 8.23%)
Protocol: (§3) Tarnishing-monitoring experiments were conducted, using samples A, B, C, D, E, and F at a product dosage of 40 grams per run in a Bauknecht GSF 3162 dishwasher, with an intake of 5 litres water. The mainwash pH values for compositions A and B were adjusted to 7.5; the mainwash pH values for compositions C and D were adjusted to 8.5. Two experiments (each) were conducted, using compositions E and F; the mainwash pH values were adjusted to 9.0 and 10.5, respectively. Silver-plated spoons, knives, and forks (supplied by Oneida Silversmiths, USA), were used as monitors for all experiments. The monitors were washed in a commercially available hand dishwashing liquid and rinsed with deionized water and acetone before use. At the end of the dishwashing machine program, the monitors were visually evaluated for the presence of colours and/or loss of shine, according to the reference scale described in Example 1.
as §3, with “Tarnish monitoring” for “Tarnishing-monitoring”, “conducted” for “conducted,”, “compositions” for “samples”, “D E” for “D, E,”, “available” for “available hand”
Tarnish monitoring experiments were conducted using compositions A, B, C, D, E and F at a product dosage of 40 grams per run in a Bauknecht GSF 3162 dishwasher, with an intake of 5 litres water. The mainwash pH values for compositions A and B were adjusted to 7.5; the mainwash pH values for compositions C and D were adjusted to 8.5. Two experiments (each) were conducted using compositions E and F; the mainwash pH values were adjusted to 9.0 and 10.5. respectively. Silver-plated spoons, knives and forks (supplied by Oneida Silversmiths, USA), were used as monitors for all experiments. The monitors were washed in a commercially available dishwashing liquid and rinsed with deionized water and acetone before use. At the end of the dishwashing machine program, the monitors were visually evaluated for the presence of colours and/or loss of shine, according to the reference scale described in Example 1.

[5] = Example 11: 1,2,4-triazole 1.0%

Structure (SMILES): c1nc[nH]n1 [1,2,4-triazole]
- pKa of compounds ([1]; deionized water): 5.4
- Effective Silver Anti-Tarnishing ([2]; Example 13: 1 wt.% compound, pH of composition 8.8): Yes (A tarnish score of 3 or less was considered effective as a silver anti-tarnishing compound)
- level at which optimum performance was achieved ([3]; Example 12): 1 % by weight
- silver tarnishing, in words ([3]; Example 12, at amounts of 0.05 % by weight): effectively reduced silver tarnishing
- reduction of tarnishing [4, 5]: 1.5 units of tarnishing
- reduction in tarnishing [4, 5]: 3.0 units
- level of tarnishing relative to the case where no anti-tarnishing agent was present ([4]; Example 11: 1,2,4-triazole 1.0%, peracetic acid, epsilon-phthalimidoperoxyhexanoic acid or sodium hypochlorite, pH 7.5 to 10.5): reduced the level of tarnishing

Structure (SMILES): c1ncc2[nH]cnc2n1 [Purine]
- pKa [1]: 5.5
- Effective Silver Anti-Tarnishing ([2]; Example 5: 1 wt.% compound, pH of composition 8.6): Yes (A tarnish score of 3 or less was considered effective as a silver anti-tarnishing compound)
- level of tarnishing relative to the samples which did not contain purine ([4]; Example 4: purine 1.0%, peracetic acid pH 7.5, epsilon-phthalimidoperoxy hexanoic acid pH 8.5, sodium hypochlorite pH 9.0 and 10.5): greatest at pH values of 7.5, 8.5 and 9.0

Structure (SMILES): O=c1[nH]c(=O)[nH]c(=O)[nH]1 [cyanuric acid, 1,3,5-triazine-2,4,6(1H,3H,5H)-trione]
- level which gives optimum anti-tarnish performance ([3]; Example 9): about 1%
- appearance of the monitors ([3]; Example 9, cyanuric acid at a 2.5% level): slightly yellow appearance
- reduction of tarnishing ([4]; Example 8: cyanuric acid 1.0%): 1.5 units of tarnishing
- reduction in tarnishing ([4]; Example 8: cyanuric acid 1.0%): 3.0 units
- level of tarnishing relative to the case where no anti-tarnish agent was present ([4]; Example 8: cyanuric acid 1.0%, peracetic acid, epsilon-phthalimidoperoxyhexanoic acid or sodium hypochlorite, pH 7.5 to 10.5): reduced the level of tarnishing
